“Also recorded” adds a separate entry of the source. Where two headings read alike, the source gives them in different places.
How the values were obtained:
[1] = single ascending dose (25–1200 mg), humans; cited from earlier work
[2] = tested on: P. falciparum blood stage; details: humans; cited from earlier work
P. falciparum = details: number of parasites; cited from earlier work
P. falciparum Dd2 WT = assay: microbe, parasite or virus in culture; assay type: cell-based; details: Plasmodium falciparum, DD2|DSM265, read-out: DSM265 EC50
[3] = tested on: P. falciparum Dd2 R2B (DHODH R265G); assay: P. falciparum growth EC50 determination; assay type: cell-based; details: Plasmodium falciparum, DD2|DSM265, read-out: DSM265 EC50
[4] = tested on: P. falciparum Dd2 RIAClB (DHODH C276F); assay: P. falciparum growth EC50 determination; assay type: cell-based; details: Plasmodium falciparum, DD2|DSM265, read-out: DSM265 EC50
[5] = tested on: P. falciparum Dd2^Dhodh C276Y (CRISPR/Cas9-edited clones); assay: In vitro 72 h drug susceptibility assay, CRISPR/Cas9 study; assay type: cell-based; details: Plasmodium falciparum, DD2|DSM265, read-out: DSM265 EC50
P. falciparum Dd2 parent = assay: as above; assay type: cell-based; details: Plasmodium falciparum, DD2|DSM265, read-out: DSM265 EC50
[6] = tested on: P. falciparum Dd2 R1BClA (DHODH L531F); assay: P. falciparum growth EC50 determination; assay type: cell-based; details: Plasmodium falciparum, DD2|DSM265, read-out: DSM265 EC50
[7] = tested on: P. falciparum Dd2 BSmut control; assay: In vitro 72 h drug susceptibility assay, CRISPR/Cas9 study; assay type: cell-based; details: Plasmodium falciparum, DD2|DSM265, read-out: DSM265 EC50
P. falciparum sporozoite = details: cited from earlier work
[8] = tested on: P. falciparum Dd2 R10ClB (DHODH G181C); assay: P. falciparum growth EC50 determination; assay type: cell-based; details: Plasmodium falciparum, DD2|DSM265, read-out: DSM265 EC50
[9] = neutral pH; cited from earlier work
[10] = tested on: P. falciparum Dd2 R3B (DHODH E182D); assay: P. falciparum growth EC50 determination; assay type: cell-based; details: Plasmodium falciparum, DD2|DSM265, read-out: DSM265 EC50
P. vivax = details: compared with P. falciparum; cited from earlier work
P. falciparum malaria = details: cited from earlier work
[11] = tested on: P. falciparum line from second round of DSM1 selections (increased dhodh copy number); details: cited from earlier work
[12] = tested on: DSM265-resistant P. falciparum Dd2 parasites; assay: Drug sensitivity of DSM265-resistant Dd2 parasites; assay type: cell-based, Plasmodium falciparum; details: DSM265-selected Dd2 mutant lines; values in Table S1 (not available)
PfDHODH = details: cited from earlier work

For Cc1cc(Nc2ccc(S(F)(F)(F)(F)F)cc2)n2nc(C(C)(F)F)nc2n1 [DSM265, 2-(1,1-difluoroethyl)-5-methyl-[N-[4-(pentafluorosulfanyl)phenyl] 1,2,4]triazolo[1,5-a]pyrimidin-7-amine], the Safety [1] is listed as “good safety”, the “Efficacy in blood stage human challenge study” value [2] is listed as “demonstrating efficacy” and the “Minimum inoculum of resistance for the emergence of DSM265-resistant parasites” value (P. falciparum) is listed as ≥ 10^5. It also gave an EC50 (P. falciparum Dd2 WT) of 4.6 ± 1.1 nM, an EC50 [3] of 150 ± 73 nM and an EC50 [4] of 170 ± 55 nM. It also gave an EC50 [5] of 120 ± 26 nM, an EC50 (P. falciparum Dd2 parent) of 4.8 ± 0.86 nM and an EC50 [6] of 110 ± 17 nM. For the same compound, the EC50 [7] was 5.1 ± 0.31 nM, the Protection from infection (P. falciparum sporozoite; dosed 3 or 7 days before challenge) was “partial protection” and the Protection from infection (P. falciparum sporozoite; single dose of 400 mg given 1 day prior to challenge) was “full protection”. The EC50 [8] was 150 ± 51 nM, the Solubility limit [9] was ~ 30 μM and the EC50 [10] was 71 ± 13 nM. For the same compound, the “Efficacy against P. vivax” value (P. vivax) was “lower”, the Cure rate (P. falciparum malaria; single dose of 250 mg) was 60% and the “Patients parasite free, extended 28-day endpoint” value (P. falciparum malaria; single dose of 400 mg) was 8/9.

In the case of O=C1C(O)=C([C@H]2CC[C@H](c3ccc(Cl)cc3)CC2)C(=O)c2ccccc21 [atovaquone], the “Sensitivity of DSM1-selected, dhodh-amplified cell line” value [11] is listed as “partial tolerance” and the “Sensitivity of DSM265-resistant parasites (EC50 vs parent Dd2)” value [12] is listed as “retained full sensitivity; also recorded: fully sensitive”.

In the case of C[C@@H]1CC[C@H]2[C@@H](C)C(=O)O[C@@H]3O[C@@]4(C)CC[C@@H]1[C@]32OO4 [artemisinin], the “Sensitivity of DSM265-resistant parasites (EC50 vs parent Dd2)” value [12] is reported as “fully sensitive; also recorded: retained full sensitivity”.

For Cc1cc(Nc2ccc3ccccc3c2)n2ncnc2n1 [DSM1, 5-methyl-N-(naphthalen-2-yl)-[1,2,4]triazolo[1,5-a]pyrimidin-7-amine], the Mode of inhibition (PfDHODH) is listed as “competitive inhibitor of CoQ”.
